Each block holds one molecule with its values, some of them ahead of it.
Key:
Aβ(1-40) [1] = target: T1, Aβ(1-40) (Homo sapiens, UniProt P05067); test: Thioflavin T fluorometric assay of Cu2+-induced Aβ(1-40) aggregation; assay type: biochemical; details: test compound 10 μg/ml; Aβ(1-40) 100 μM; 24 hours, room temperature
T1 construct: A 5 mg/ml stock solution of Aβ(1-40) (delivered from Bachem (CH)) was freshly prepared; purchased Bachem (CH)
Method: (§1) A 5 mg/ml stock solution of Aβ(1-40) (delivered from Bachem (CH)) was freshly prepared before each experiment by dissolving the lyophilised peptide in 0.01 M HCl, followed by subsequent dilution 1:1 with 0.01 M NaOH to yield a neutral pH. Aliquot of Aβ(1-40) were diluted in PBS (pH 7.4) to 100 μM and incubated at a total volume of 30 μl for 24 hours at room temperature. For co-incubation experiments, the indicated concentrations of metal ions and/or aliquot of test compounds were added. The test compounds were added to a final […] concentration of 10 μg/ml.
(§2) The amyloid formation was quantified by a thioflavin T fluorometric assay. Thioflavin binds specifically to amyloid and this introduces a shift in its emission spectrum and a fluorescent signal proportional to the amount of amyloid is formed. After incubation, Aβ(1-40) peptides were added to PBS (pH 6.0) and 3 μM thioflavin T in a final volume of 1 ml. Fluorescence was monitored at excitation 454 nm and emission 482 nm using a Fluoroscan II fluorometer (Molecular devices, UK). A time scan of fluorescence was performed and three values after the decay reached a plateau (around 5 minutes) were averaged after subtracting the background fluorescence of 3 μM thioflavin T. For co-incubation experiments, fluorescence of test compound alone was determined. Samples were run in triplicate. […]

[2] = in vivo; cited from earlier work
[3] = Solubility in water / aqueous solutions; assay type: physicochemical
Aβ(1-40) [4] = target: T1, Aβ(1-40); test: Thioflavin T fluorometric assay of Zn2+-induced Aβ(1-40) aggregation; assay type: biochemical; details: test compound 10 μg/ml; Aβ(1-40) 100 μM; 24 hours, room temperature
Method: as §1, §2

[5] = 1H NMR study of the interaction of vitamin B12 with clioquinol glucuronide; assay type: binding; details: 2.6 mM vitamin B12 and 10 mM clioquinol glucuronide, buffered water pH=6.5, 20° C.
Method: Three different solutions were prepared and their 1H NMR spectra were recorded in a DRX 400 MHz spectrophotometer at 20° C. Solution a) contained free vitamin B12 (hydroxycobalamin) in a concentration of 2.6 mM.
In FIG. 5 the spectra of the three solutions are presented for the aromatic region (5.5-9.8 ppm). The differences are quite small but obvious in the expansion shown of FIG. 6 and FIG. 7, respectively.

PC12 cells = test: MTT reduction (cell redox activity) in PC12 cells exposed to Aβ(25-35); assay type: cell-based, Rat
Method: Aβ(25-35) was delivered by Bachem (CH) or Sigma (USA) and dissolved in phosphate buffered saline (PBS) at pH 7.4, 2 hours prior to application.
Rat PC12 pheochromocytoma cells were grown in Dulbecco's modified Eagle's medium (DMEM) containing 1% penicillin-streptomycin, 5% fetal calf serum and 10% horse serum in humidified incubator with 5% CO2.
PC12 cells were plated on 96-wells microtiter plates in 100 μl of the appropriate medium. After 24 hours the indicated concentrations of Aβ(25-35) peptide was added alone or together with phanquinone in the designated concentrations. Incubation continued for 24 hours. Following incubation, MTT reduction was measured using a commercially available assay according to the manufacturer's (Boehringer Mannheim) instructions. Assay values obtained by vehicle alone were defined as 100%.
MTT is a substrate for intracellular and plasma membrane oxidoreductases and has been widely used to measure reductions of cell redox activity.
To test the effect of phanquinone on Aβ(25-35) induced toxicity in PC12 cells, PC12 cells were exposed to Aβ(25-35) peptide concentrations ranging from 0 to 10 μM. In the absence of phanquinone (i.e. only vehicle added) Aβ(25-35) produced a dose-dependent inhibition of MTT reduction (FIG. 1, filled-in circles).
In this study the same materials and methods as in example 1 were used, except that the PC12 cells were exposed to a fixed Aβ concentration of 1 μM, whereas the concentration of phanquinone was varied between 0 and 10 μg/ml. […] This inhibition was maintained in the presence of up to 0.1 μg phanquinone per ml.

T1 sequence (P05067 672-711): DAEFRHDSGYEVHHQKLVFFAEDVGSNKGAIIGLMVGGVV

reduction of Cu2+-induced aggregation of Aβ(1-40) (Aβ(1-40) [1]): approximately 30%
solubility in water [3]: cannot be dissolved in aqueous solutions
reduction of Zn2+-induced aggregation of Aβ(1-40) (Aβ(1-40) [4]): more than 60%
Molecule: Oc1c(I)cc(Cl)c2cccnc12 [clioquinol, 5-chloro-7-iodo-8-hydroxyquinoline]
adverse side effects [2]: causes subacute myelo-optico-neuropathy (SMON)

solubility in water [3]: soluble in water
Molecule: COC(=O)C1OC(Oc2c(I)cc(Cl)c3cccnc23)C(OC(C)=O)C(OC(C)=O)C1OC(C)=O (centres unmarked) [clioquinol glucuronide, methyl(5-chloro-7-iodo-quinolyl-2′,3′,4′-tri-O-acetyl-glucopyranosid)uronate]
interaction with vitamin B12 (shift of 1H NMR resonances) [5]: interaction between clioquinol glucuronide and vitamin B12, possibly of a hydrophobic nature

Molecule: Aβ(25-35): peptide sequence between amino acid residues 25 and 35 of Aβ, delivered by Bachem or Sigma (GSNKGAIIGLM; Amyloid-beta protein 42; UniProt P05067 696-706, looked up, fragment)
redox activity of cells, of the normal level (PC12 cells; 1 μM Aβ(25-35)): 60%
inhibition of MTT reduction (PC12 cells; Aβ(25-35) 1 μM, absence of phanquinone): approximately 40%
inhibition of MTT reduction (PC12 cells; Aβ(25-35) 10 μM, absence of phanquinone): approximately 50%
inhibition of MTT reduction (PC12 cells; Aβ(25-35) as low as 0.01 μM): significant reduction
MTT reduction reduced to a maximum level (PC12 cells; Aβ(25-35) on or above 0.1 μM, absence of phanquinone): about 50%

Molecule: CCN(CC)C(=S)SSC(=S)N(CC)CC [Disulfiram]
adverse side effects [2]: severe adverse reactions

Molecule: O=C1C(=O)c2ncccc2-c2cccnc21 [phanquinone, 4,7-phenanthroline-5,6-dione]
reduction of Cu2+-induced aggregation of Aβ(1-40) (Aβ(1-40) [1]): 50-60%
adverse side effects [2]: no adverse side effects have been detected
redox activity of Aβ(25-35)-treated cells (PC12 cells; 1 μM Aβ(25-35), 1 μg/ml phanquinone or more): normal redox activity is restored
toxic effect of Aβ (PC12 cells; 10 μg phanquinone per ml, Aβ as high as 1 μM): completely counteracted
toxic effect of Aβ(25-35) (PC12 cells; 10 μg phanquinone per ml, Aβ(25-35) 0 to 10 μM): virtually abolished
toxic effect of Aβ(25-35) (PC12 cells; Aβ 1 μM, phanquinone 1 μg/ml and above): completely abolished
toxic effect of Aβ(25-35) (PC12 cells; Aβ 1 μM, phanquinone above 0.1 μg/ml): drastic reduced toxic effect
inhibition of MTT reduction by Aβ(25-35) (PC12 cells; Aβ 1 μM, up to 0.1 μg phanquinone per ml): maintained

Source: patent US7629354B2, “Use of phanquinone for the treatment of Alzheimer's disease” (Prana Biotechnology Limited, priority 1997, dated 2009)
